The text below walks through data of US7517873B2, “Substituted pyrimidodiazepines” (Hoffman-La Roche Inc., priority 2007, dated 2009).

A value given as a limit tells only on which side of the number the result lay.

For the experiment, the target named is T1, GST-PLK1 (Homo sapiens, UniProt P53350).
T1 construct: Full-length, active GST-PLK1 is purified from Sf9 insect cells; made in house; host or cells: Sf9 insect cells
T1 sequence (P53350 whole entry): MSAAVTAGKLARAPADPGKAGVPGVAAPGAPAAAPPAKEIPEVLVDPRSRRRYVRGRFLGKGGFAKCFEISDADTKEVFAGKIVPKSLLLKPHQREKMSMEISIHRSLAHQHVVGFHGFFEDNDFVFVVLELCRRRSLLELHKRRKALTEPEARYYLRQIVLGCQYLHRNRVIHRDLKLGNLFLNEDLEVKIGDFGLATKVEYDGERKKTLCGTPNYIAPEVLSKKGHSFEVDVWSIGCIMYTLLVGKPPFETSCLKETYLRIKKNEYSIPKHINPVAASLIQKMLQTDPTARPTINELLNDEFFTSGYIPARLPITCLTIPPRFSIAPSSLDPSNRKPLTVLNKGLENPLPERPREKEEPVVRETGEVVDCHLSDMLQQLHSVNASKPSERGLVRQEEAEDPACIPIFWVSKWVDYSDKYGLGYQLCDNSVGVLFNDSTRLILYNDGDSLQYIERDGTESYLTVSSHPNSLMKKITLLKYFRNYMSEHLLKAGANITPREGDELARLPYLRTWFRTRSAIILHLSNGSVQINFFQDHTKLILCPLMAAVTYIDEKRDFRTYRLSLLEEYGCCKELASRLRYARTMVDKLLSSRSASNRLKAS
As to the kind of experiment: Biochemical Characterization Assay: GST-PLK1 kinase HTRF assay with GST-p53 substrate. Conditions: full-length GST-PLK1, GST-p53 and ATP, 37° C. for 35 minutes, HTRF signal. The protocol: Biochemical Characterization Assay
Full-length, active GST-PLK1 is purified from Sf9 insect cells, and full-length GST-p53 is purified from E. coli. Anti-phospho p53 antibody is from Cell Signaling Technology. Europium-conjugated anti-rabbit antibody is from PerkinElmer Life and Analytical Sciences. APC-conjugated anti-GST antibody is from Prozyme.
To assay compounds of the invention, two microliters of test compound (0.6 nM-4 mM) in DMSO or plain DMSO for control wells, 38 microliters of 20 mM HEPES pH 7, 50 mM NaCl, 10 mM MgCl2, 0.5 mM TCEP, 0.1 mM sodium orthovanadate, 0.1 mg/mL BSA, and 0.05% Triton X-100 (Kinase Assay Buffer) are added. […] Six microliters of GST-PLK1 (3 ug/mL) in Kinase Assay Buffer are then added and the solution incubated at 37° C. for 35 minutes. Six microliters of solution containing 43 mM EDTA to stop the reaction and a 1:600 dilution of anti-phospho-p53 antibody in 20 mM HEPES pH 7, 50 mM NaCl, and 0.5 mg/mL BSA (Antibody Binding Buffer) are added and the solution incubated at 37° C. for 30 minutes. […] The HTRF signal is read on an Envision reader from PerkinElmer Life and Analytical Sciences.
(Time-resolved FRET reads energy transfer from a long-lived donor to a nearby acceptor.)
Usually IC50 stands for the concentration at which inhibition is half-maximal. Lower therefore signals higher potency. The molecule `COc1cc(C(=O)NC2CCN(C)CC2)ccc1Nc1ncc2c(n1)N(C1CCCC1)CC(C)C(=O)N2C` (racemic) [I-2, (rac)-4-(9-Cyclopentyl-5,7-dimethyl-6-oxo-6,7,8,9-tetrahydro-5H-pyrimido[4,5-b][1,4]diazepin-2-ylamino)-3-methoxy-N-(1-methyl-piperidin-4-yl)-benzamide] gave an IC50 of less than 500 nM.
`COc1cc(C(=O)O)ccc1Nc1ncc2c(n1)N(C1CCCC1)C(C)CC(=O)N2C` (racemic) [I-3, (rac)-4-(9-Cyclopentyl-5,8-dimethyl-6-oxo-6,7,8,9-tetrahydro-5H-pyrimido[4,5-b][1,4]diazepin-2-ylamino)-3-methoxy-benzoic acid] returned an IC50 of 500 to 5000 nM.
For the molecule `COc1cc(C(=O)NC2CCN(C)CC2)ccc1Nc1ncc2c(n1)N(C1CCCC1)C(C)CC(=O)N2C` (racemic) [I-4, (rac)-4-(9-Cyclopentyl-5,8-dimethyl-6-oxo-6,7,8,9-tetrahydro-5H-pyrimido[4,5-b][1,4]diazepin-2-ylamino)-3-methoxy-N-(1-methyl-piperidin-4-yl)-benzamide], the IC50 was less than 500 nM.
On to `CC1CN(C2CCCC2)c2nc(Nc3ccc(C(=O)NC4CCN(C)CC4)cc3)ncc2N(C)C1=O` (racemic) [I-6, (rac)-4-(9-Cyclopentyl-5,7-dimethyl-6-oxo-6,7,8,9-tetrahydro-5H-pyrimido[4,5-b][1,4]diazepin-2-ylamino)-N-(1-methyl-piperidin-4-yl)-benzamide], for which the half-maximal inhibitory concentration (IC50) is less than 500 nM.
The same measure for `Cc1cc(C(=O)NC2CCN(C)CC2)ccc1Nc1ncc2c(n1)N(C1CCCC1)CC(C)C(=O)N2C` (racemic) [I-8, (rac)-4-(9-Cyclopentyl-5,7-dimethyl-6-oxo-6,7,8,9-tetrahydro-5H-pyrimido[4,5-b][1,4]diazepin-2-ylamino)-3-methyl-N-(1-methyl-piperidin-4-yl)-benzamide]: less than 500 nM; for `COc1cc(C(=O)NC2CCN(Cc3ccccc3)CC2)ccc1Nc1ncc2c(n1)N(C1CCCC1)CC(C)C(=O)N2C` (racemic) [I-9, (rac)-N-(1-Benzyl-piperidin-4-yl)-4-(9-cyclopentyl-5,7-dimethyl-6-oxo-6,7,8,9-tetrahydro-5H-pyrimido[4,5-b][1,4]diazepin-2-ylamino)-3-methoxy-benzamide]: less than 500 nM; for `CCC1CN(C2CCCC2)c2nc(Nc3ccc(C(=O)NC4CCN(C)CC4)cc3OC)ncc2N(C)C1=O` (racemic) [I-13, (rac)-4-(9-Cyclopentyl-7-ethyl-5-methyl-6-oxo-6,7,8,9-tetrahydro-5H-pyrimido[4,5-b][1,4]diazepin-2-ylamino)-3-methoxy-N-(1-methyl-piperidin-4-yl)-benzamide]: less than 500 nM.
Turning to `CCC1CN(C2CCCC2)c2nc(Nc3ccc(C(=O)NC4CCN(C)CC4)cc3OC)ncc2N(CC)C1=O` (racemic) [I-15, (rac)-4-(9-Cyclopentyl-5,7-diethyl-6-oxo-6,7,8,9-tetrahydro-5H-pyrimido[4,5-b][1,4]diazepin-2-ylamino)-3-methoxy-N-(1-methyl-piperidin-4-yl)-benzamide], the half-maximal inhibitory concentration (IC50) was 500 to 5000 nM.
In turn, `CCCC1CN(C2CCCC2)c2nc(Nc3ccc(C(=O)NC4CCN(C)CC4)cc3OC)ncc2N(C)C1=O` (racemic) [I-17, (rac)-4-(9-Cyclopentyl-5-methyl-6-oxo-7-propyl-6,7,8,9-tetrahydro-5H-pyrimido[4,5-b][1,4]diazepin-2-ylamino)-3-methoxy-N-(1-methyl-piperidin-4-yl)-benzamide] displayed an IC50 of 500 to 5000 nM.
`COc1cc(C(=O)NC2CCN(C)CC2)ccc1Nc1ncc2c(n1)N(C1CCCCC1)CC(C)C(=O)N2` (racemic) [I-18, (rac)-4-(9-Cyclohexyl-7-methyl-6-oxo-6,7,8,9-tetrahydro-5H-pyrimido[4,5-b][1,4]diazepin-2-ylamino)-3-methoxy-N-(1-methyl-piperidin-4-yl)-benzamide] registered a half-maximal inhibitory concentration (IC50) of 500 to 5000 nM.
Consider `COc1cc(C(=O)NC2CCN(C)CC2)ccc1Nc1ncc2c(n1)N(C1CCCCC1)CC(C)C(=O)N2C` (racemic) [I-19, (rac)-4-(9-Cyclohexyl-5,7-dimethyl-6-oxo-6,7,8,9-tetrahydro-5H-pyrimido[4,5-b][1,4]diazepin-2-ylamino)-3-methoxy-N-(1-methyl-piperidin-4-yl)-benzamide], for which the IC50 is less than 500 nM.
`CC1CN(C2CCCCC2)c2nc(Nc3ccc4oc(-c5ccncc5)nc4c3)ncc2N(C)C1=O` (racemic) [I-26, (rac)-9-Cyclohexyl-5,7-dimethyl-2-(2-pyridin-4-yl-benzooxazol-5-ylamino)-5,7,8,9-tetrahydro-pyrimido[4,5-b][1,4]diazepin-6-one] gave an IC50 of more than 5000 nM.
`COc1cc(C(=O)NC2CCN(C)CC2)ccc1Nc1ncc2c(n1)N(CCC(C)C)CC(C)C(=O)N2C` (racemic) [I-27, (rac)-4-[5,7-Dimethyl-9-(3-methyl-butyl)-6-oxo-6,7,8,9-tetrahydro-5H-pyrimido[4,5-b][1,4]diazepin-2-ylamino]-3-methoxy-N-(1-methyl-piperidin-4-yl)-benzamide] gave an IC50 of 500 to 5000 nM.
`COc1cc(C(=O)NC2CCN(C)CC2)ccc1Nc1ncc2c(n1)N(C1CCCC1)C(C)C(C)C(=O)N2C` (racemic) [I-41, (rac)-4-(9-Cyclopentyl-5,7,8-trimethyl-6-oxo-6,7,8,9-tetrahydro-5H-pyrimido[4,5-b][1,4]diazepin-2-ylamino)-3-methoxy-N-(1-methyl-piperidin-4-yl)-benzamide]: the concentration for half-maximal inhibition (IC50) was less than 500 nM.
`COc1cc(C(=O)NC2CCN(C)CC2)ccc1Nc1ncc2c(n1)N(Cc1ccccc1)CC(C)C(=O)N2C` (racemic) [I-42, (rac)-4-(9-Benzyl-5,7-dimethyl-6-oxo-6,7,8,9-tetrahydro-5H-pyrimido[4,5-b][1,4]diazepin-2-ylamino)-3-methoxy-N-(1-methyl-piperidin-4-yl)-benzamide] displayed an IC50 of 500 to 5000 nM.
`COc1cc(C(=O)NC2CCN(C)CC2)ccc1Nc1ncc2c(n1)N(C1CCOCC1)CC(C)C(=O)N2C` (racemic) [I-45, (rac)-4-[5,7-Dimethyl-6-oxo-9-(tetrahydro-pyran-4-yl)-6,7,8,9-tetrahydro-5H-pyrimido[4,5-b][1,4]diazepin-2-ylamino]-3-methoxy-N-(1-methyl-piperidin-4-yl)-benzamide] registered an IC50 of less than 500 nM.
In the case of `COc1cc(C(=O)NC2CCN(C)CC2)ccc1Nc1ncc2c(n1)N(C1CC1)C(C)C(C)C(=O)N2C` (racemic) [I-46, (rac)-4-(9-Cyclopropyl-5,7,8-trimethyl-6-oxo-6,7,8,9-tetrahydro-5H-pyrimido[4,5-b][1,4]diazepin-2-ylamino)-3-methoxy-N-(1-methyl-piperidin-4-yl)-benzamide], the IC50 is less than 500 nM.
The same measure for `CC1CN(C2CCCC2)c2nc(Nc3ccc(O)c(NC(=O)c4cccnc4)c3)ncc2N(C)C1=O` (racemic) [I-47, (rac)-N-[5-(9-Cyclopentyl-5,7-dimethyl-6-oxo-6,7,8,9-tetrahydro-5H-pyrimido[4,5-b][1,4]diazepin-2-ylamino)-2-hydroxy-phenyl]-nicotinamide]: 500 to 5000 nM.
On to `CC1CN(C2CCCC2)c2nc(Nc3ccc(O)c(NC(=O)c4ccncc4)c3)ncc2N(C)C1=O` (racemic) [I-48, (rac)-N-[5-(9-Cyclopentyl-5,7-dimethyl-6-oxo-6,7,8,9-tetrahydro-5H-pyrimido[4,5-b][1,4]diazepin-2-ylamino)-2-hydroxy-phenyl]-isonicotinamide], for which the IC50 lay within 500 to 5000 nM.
As for `COc1cc(C(=O)NC2CCN(C)CC2)ccc1Nc1ncc2c(n1)N(C1CCCC1)CC(CCO)C(=O)N2C` (racemic) [I-49, (rac)-4-[9-Cyclopentyl-7-(2-hydroxy-ethyl)-5-methyl-6-oxo-6,7,8,9-tetrahydro-5H-pyrimido[4,5-b][1,4]diazepin-2-ylamino]-3-methoxy-N-(1-methyl-piperidin-4-yl)-benzamide], the figure is 500 to 5000 nM; as for `COc1cc(C(=O)NC2CCN(C)CC2)ccc1Nc1ncc2c(n1)N(c1ccccc1)CC(C)C(=O)N2C` (racemic) [I-51, (rac)-4-(5,7-Dimethyl-6-oxo-9-phenyl-6,7,8,9-tetrahydro-5H-pyrimido[4,5-b][1,4]diazepin-2-ylamino)-3-methoxy-N-(1-methyl-piperidin-4-yl)-benzamide], 500 to 5000 nM; as for `COc1cc(C(=O)NC2CCN(C)CC2)ccc1Nc1ncc2c(n1)N(C1CCC1)CC(C)C(=O)N2C` (racemic) [I-52, (rac)-4-(9-Cyclobutyl-5,7-dimethyl-6-oxo-6,7,8,9-tetrahydro-5H-pyrimido[4,5-b][1,4]diazepin-2-ylamino)-3-methoxy-N-(1-methyl-piperidin-4-yl)-benzamide], less than 500 nM.
For the molecule `COc1cc(C(=O)NC2CCN(C)CC2)ccc1Nc1ncc2c(n1)N(CC1CCCC1)CC(C)C(=O)N2C` (racemic) [I-55, (rac)-4-(9-Cyclopentylmethyl-5,7-dimethyl-6-oxo-6,7,8,9-tetrahydro-5H-pyrimido[4,5-b][1,4]diazepin-2-ylamino)-3-methoxy-N-(1-methyl-piperidin-4-yl)-benzamide], the 50% inhibitory concentration (IC50) is less than 500 nM.
As for `COc1cc(C(=O)NC2CCN(C)CC2)ccc1Nc1ncc2c(n1)N(C1CCCC1C)CCC(=O)N2C` (racemic) [I-57, (rac)-3-Methoxy-4-[5-methyl-9-(2-methyl-cyclopentyl)-6-oxo-6,7,8,9-tetrahydro-5H-pyrimido[4,5-b][1,4]diazepin-2-ylamino]-N-(1-methyl-piperidin-4-yl)-benzamide], the figure is less than 500 nM.
